According to ChEMBL document CHEMBL5576134, “Targeting Pancreatic Cancer with Novel Nicolaioidesin C Derivatives: Molecular Mechanism, In Vitro, and In Vivo Evaluations” (J Med Chem, 2024):
Active and inactive are the calls of the source. The rule behind the calls is not given here.

Key:
[1] = Modulation of PI3K/AKT/mTOR signalling pathway in human MIA PaCa-2 cells in DMEM medium assessed as decrease in mTOR phosphorylation at 5 uM measured for 6 hrs by Western blot analysis; assay type: cell-based; conditions: filed as modulator
MIA PaCa-2 [2] = assay: Induction of endoplasmic reticulum (ER) stress in human MIA PaCa-2 cells in NDM medium assessed as change in TRB3 level at 5 uM measured after 6 hrs by Western blot analysis; assay type: functional, cell-based
MIA PaCa-2 [3] = assay: Induction of endoplasmic reticulum (ER) stress in human MIA PaCa-2 cells in DMEM medium assessed as change in TRB3 level at 5 uM measured after 6 hrs by Western blot analysis; assay type: functional, cell-based
MIA PaCa-2 [4] = assay: Antimetastatic activity in human MIA PaCa-2 cells in DMEM media assessed as inhibition of colony formation incubated for 24 hrs by crystal violet staining-based assay; assay type: functional, cell-based; conditions: dose 5-20 µM
[5] = Modulation of PI3K/AKT/mTOR signalling pathway in human MIA PaCa-2 cells in DMEM medium assessed as downregulation of GRP78 expression incubated for 24 hrs in presence of gemcitabine by Western blot analysis; assay type: cell-based; conditions: filed as modulator, dose 1-5 µM
MIA PaCa-2 [6] = assay: Preferential cytotoxicity against human MIA PaCa-2 cells in nutrient-deprived medium assessed as alteration in cell morphology by measuring membrane rupture at 0.5 to 1 uM measured after 24 hrs by acridine orange and ethidium bromide dual fluorescent staining based microscopic analysis; assay type: functional; conditions: dose 0.5-1 µM
MIA PaCa-2 [7] = assay: Induction of endoplasmic reticulum (ER) stress in human MIA PaCa-2 cells assessed as reduction in CHOP expression measured after 6 hrs by Western blot analysis; assay type: functional, cell-based; conditions: dose 5.0 µM
MIA PaCa-2 [8] = assay: Preferential cytotoxicity against human MIA PaCa-2 cells in nutrient-deprived medium assessed as alteration in cell morphology by measuring cell rounding at 0.5 to 1 uM measured after 24 hrs by acridine orange and ethidium bromide dual fluorescent staining based microscopic analysis; assay type: functional; conditions: dose 0.5-1 µM
MIA PaCa-2 [9] = assay: Antitumor activity against human MIA PaCa-2 cells xenografted in BALB/c/Nu/Nu mouse assessed as reduction in number of blood vessels in skin at 20 mg/kg, ip administered 5 times a week for 4 weeks; assay type: functional, organism-based
MIA PaCa-2 [10] = assay: Antitumor activity against human MIA PaCa-2 cells xenografted in BALB/c/Nu/Nu mouse assessed as reduction in number of blood vessels in skin at 60 mg/kg, ip administered 5 times a week for 4 weeks in presence of gemcitabine; assay type: functional, organism-based
[11] = Toxicity in BALB/c/Nu/Nu mouse xenografted with human MIA PaCa-2 cells assessed as change in abdominal organs at 60 mg/kg, ip administered 5 times a week for 4 weeks; assay type: organism-based; conditions: in vivo, 672 h
MIA PaCa-2 [12] = assay: Antimetastatic activity in human MIA PaCa-2 cells in DMEM media assessed as reduction in colony area at 20 uM incubated for 24 hrs by crystal violet staining-based assay; assay type: functional; set-up: scale not given: the % may be the effect or the level left
Mus musculus [13] = assay: In-vivo modulation of PI3K/AKT/mTOR signalling pathway in human MIA PaCa-2 cells xenografted in BALB/c/Nu/Nu mouse assessed as downregulation of CHOP level at 60 mg/kg, ip administered 5 times a week for 4 weeks in presence of gemcitabine by Western blot analysis; assay type: functional, organism-based
Mus musculus [14] = assay: In-vivo modulation of PI3K/AKT/mTOR signalling pathway in human MIA PaCa-2 cells xenografted in BALB/c/Nu/Nu mouse assessed as downregulation of GRP78 level at 60 mg/kg, ip administered 5 times a week for 4 weeks in presence of gemcitabine by Western blot analysis; assay type: functional, organism-based
[15] = Toxicity in BALB/c/Nu/Nu mouse xenografted with human MIA PaCa-2 cells assessed as change in body weight at 20 mg/kg, ip administered 5 times a week for 4 weeks; assay type: organism-based; conditions: in vivo, 672 h
[16] = Toxicity in BALB/c/Nu/Nu mouse xenografted with human MIA PaCa-2 cells assessed as change in body weight at 60 mg/kg, ip administered 5 times a week for 4 weeks in presence of gemcitabine; assay type: organism-based; conditions: in vivo, 672 h

Question: With `CC(C)=CCCC1=CC[C@H](C(=O)c2c(O)cccc2O)[C@@H](c2cccc(F)c2F)C1` (relative stereo) as the compound, how does the Activity [1] read?
Answer: The Activity was “Active”.

Question: What about the Activity (MIA PaCa-2 [2]) of the same compound?
Answer: The Activity was “Active”.

Question: And the Activity (MIA PaCa-2 [3])?
Answer: The Activity was “Active”.

Question: What about the Activity (MIA PaCa-2 [4]) of the same compound?
Answer: Its Activity is “Dose-Dependent Effect”.

Question: And the Activity [5]?
Answer: Its Activity is “Dose-Dependent Effect”.

Question: And the Activity (MIA PaCa-2 [6])?
Answer: Its Activity is “Active”.

Question: What about the Activity (MIA PaCa-2 [7]) of the same compound?
Answer: Its Activity is “Dose-Dependent Effect”.

Question: What about the Activity (MIA PaCa-2 [8]) of the same compound?
Answer: Its Activity is “Active”.

Question: And the Activity (MIA PaCa-2 [9])?
Answer: The Activity was “Active”.

Question: And the Activity (MIA PaCa-2 [10])?
Answer: Its Activity is “Active”.

Question: What about the Activity [11] of the same compound?
Answer: Its Activity is “Non-Toxic”.

Question: What about the Activity (MIA PaCa-2 [12]) of the same compound?
Answer: Its Activity is 98%.

Question: What about the Activity (Mus musculus [13]) of the same compound?
Answer: The Activity was “Active”.

Question: What about the Activity (Mus musculus [14]) of the same compound?
Answer: Its Activity is “Active”.

Question: And the Activity [15]?
Answer: The Activity was “Non-Toxic”.

Question: What about the Activity [16] of the same compound?
Answer: Its Activity is “Non-Toxic”.
